The source of these data is PMC10224004, “Modulation of Distribution and Diffusion through the Lipophilic Membrane with Cyclodextrins Exemplified by a Model Pyridinecarboxamide Derivative” (Pharmaceutics, 2023).

Like-named read-outs stand apart in the source and are kept apart here. Some results are limits rather than exact numbers.

Data set [1] in a line: Shake-flask solubility in 1-octanol and dissolution thermodynamics. Particulars: T 290.2 K; value = S2 × 10^1. Format: physicochemical.
Assay in data set [2]: as above
Format: physicochemical. Particulars: for Molar solubility S2 × 10^1 in 1-Octanol: value = S2 × 10^1. As to the method: The solubility of the investigated drugs in 1-octanol and n-hexane was determined by the shake-flask technique. To this end, the glass vials containing the solutions with the excess amount of the compound were placed in an air thermostat and stirred at a predetermined temperature for no less than 24 h (equilibrium state). After this, the suspensions were left for 5 h or more to precipitate the undissolved drug and centrifuged (Biofuge pico, Thermo Electron LED GmbH, Langenselbold, Germany) at a predetermined temperature during 20 min (10,000 rpm). The aliquots of the clear solutions were taken and examined via a spectrophotometer (Cary-50 Varian, Palo Alto, CA, USA, Software Version 3.00 (339)). The molar concentrations of the compounds in the solvents were calculated using calibration curves at the appropriate wavelength characteristic for each substance. The experimental results were reported as an average of at least three replicated experiments with an accuracy of 2–4%. In order to evaluate the thermodynamic parameters of the IPN dissolution in 1-octanol and n-hexane, the molar solubility ( S2 ) was recalculated to the mole fraction ( X2 ) by the equation:(1) X2=M2S2/S2(M1−M2)+1000ρ, where M1 and M2 are the molar masses of IPN and organic solvent, respectively, and ρ (g∙cm^−3) is the density of the pure solvents. The linear functions describing the temperature dependences of the solubility within the temperature interval from 293.2 ± 0.5 K to 313.2 ± 0.5 K for both organic solvents were derived:(2) lnX2=A+B/T
The apparent solution enthalpies ΔHsol0 were determined by the van’t Hoff equation:(3) ∂(lnX2)/∂T=ΔHsol0/RT^2
The apparent dissolution Gibbs energies ( ΔGsol ) and entropies ( ΔSsol ) were calculated at a standard temperature of 298.2 K and 310.2 K:(4) ΔGsol298.2/310.2=−RT(lnX2298.2/310.2) (5) ΔGsol298.2/310.2=ΔHsol0−TΔSsol298.2/310.2 where R is the universal gas constant.

Data set [3] can be described thus: Shake-flask solubility in n-hexane and dissolution thermodynamics. Particulars: T 290.2 K; value = S2 × 10^3. The format is physicochemical.
Data set [4] is described as follows: Membrane permeability in Franz diffusion cell. The format is in vitro ADME. The following applies: for Papp at 5 h: pH 7.4, PermeaPad barrier, read-out: permeability coefficient (Papp). The procedure: Membrane permeability coefficients of the studied drugs were measured in the Franz diffusion cell of vertical type (PermeGear, Inc., Hellertown, PA, USA) with 7 mL/1 mL volumes of the donor and acceptor solutions through the reverse dialysis set up. The PermeaPad barrier (PHABIOC, Fritz-Souchon-Str.27 32339 Espelkamp Germany, www.innome.de) (0.785 cm^2 effective surface area) was mounted between the donor and acceptor chambers of the diffusion cell. The temperature was maintained at 310.2 ± 0.5 K throughout the experiment. Samples of 0.5 mL were withdrawn each 30 min from the acceptor solution and replaced with an equal amount of fresh buffer. Permeability experiments lasted over five hours in all cases. The solutions concentrations were analyzed via spectrophotometer (Spectramax 190; Molecular Devices Corporation, San Jose, CA, USA) in 96-well UV black plates (Costar) at a wavelength of 264 nm and 266 nm for IPN and INZ/iNAM, respectively. The dependences of the amount of the permeated drug over the surface area (dQ/A) on time (t) were plotted and flux (J) across the membrane was calculated by the equation:(11) J=dQ/A×dt The apparent permeability coefficients (Papp) were determined by normalizing the flux measured over the concentration of the drug in the donor compartment (C0) by the equation:(12) Papp=J/C0 Each permeability experiment was carried out in triplicate.
Similarly to the distribution, the permeability coefficients were obtained in the absence (for IPN, and iNAM) and in the presence of cyclodextrins (HP-β-CD and M-β-CD) (for IPN only) in the donor solution. The concentrations of cyclodextrins were 0.0115 M, 0.025 M and 0.035 M. The permeability coefficient for INZ through the PermeaPad barrier was determined in our previous investigation and taken in the present study for the sake of comparison.

On the set-up of data set [5]: method as in PMID 12750026. The following applies: 293.2 K (20 °C); cited from earlier work.

For `CC(C)NNC(=O)c1ccncc1` [IPN, N′-isopropyl isonicotinic hydrazide], the “Molar solubility S2 × 10^1 in 1-Octanol” value is listed as 4.09 ± 0.08 × 10^1 (M) in data set [1]; 4.44 ± 0.09 × 10^1 (M) in data set [2] (T 293.2 K); 5.06 ± 0.06 × 10^1 (M) in data set [2] (T 298.2 K); 5.73 ± 0.11 × 10^1 (M) in data set [2] (T 303.2 K); 6.86 ± 0.18 × 10^1 (M) in data set [2] (T 310.2 K). The TΔSsol298.2 in data set [2] (1-octanol, 298.2 K) stood at 3.42 ± 0.096 kcal/mol. Further, the ΔGsol298.2 in data set [2] (1-octanol, 298.2 K) came to 1.48 ± 0.024 kcal/mol. Also, the ζHsol stood at 58.9% in data set [2] (1-octanol, 298.2 K (first value of cell)) and 57.9% in data set [2] (1-octanol, 310.2 K (second value of cell)). Further, the ΔHsol298.2/310.2 in data set [2] (1-octanol, 298.2 K and 310.2 K) is 4.9 ± 0.048 kcal/mol. In addition, the TΔSsol310.2 in data set [2] (1-octanol, 310.2 K) amounted to 3.56 ± 0.096 kcal/mol. The molecule further displayed a ΔGsol310.2 in data set [2] (1-octanol, 310.2 K) of 1.34 ± 0.024 kcal/mol. The “solubility higher in 1-octanol than in n-hexane” value in data set [2] (310.2 K, ratio of molar solubilities) is 338 fold. In addition, the “Molar solubility S2 × 10^3 in n-Hexane” value in data set [3] was 0.72 ± 0.01 × 10^3 (M). The “steady penetrate rate - flux J∙10^4” value in data set [4] (PermeaPad barrier, 310.2 K, pH 7.4, printed value = J × 10^4, cyclodextrin in donor solution as in the label) is recorded as 1.25 ∙10^4 (μM∙cm‐2∙s‐1). In addition, in data set [4] (PermeaPad barrier, 310.2 K, pH 7.4, value = Papp × 10^5, cyclodextrin in donor solution as in the label), the “Papp∙10^5” value is recorded as 2.03±0.05 ∙10^5 (cm∙s‐1). The Papp at 5 h in data set [4] (310.2 K, without cyclodextrins) was 20.3 ×10⁻⁶ cm/s; in data set [4] (enhancement in the presence of M-β-CD in donor solution (highest value reached)), ≤ 28.7 ×10⁻⁶ cm/s; in data set [4] (slight decrease upon growing HP-β-CD concentration in donor solution (lowest value reached)) it was ≥ 17.8 ×10⁻⁶ cm/s. Further, the “log Dexpoct/pH7.4” value in data set [5] is 0.35 ± 0.10.

Broadly, the Papp is a coefficient for how fast a substance crosses the barrier.
